Experimental data from patent US8119663B2, “Heteroaryl-substituted piperidines” (Bayer Pharma Aktiengesellschaft, priority 2007, dated 2012).
Counter-ions that a name gives are not always drawn.

biological target: T1, human protease activated receptor 1 (PAR1) (Homo sapiens, UniProt P25116); test: Cellular functional in vitro test (aequorin luminescence, PAR1 test cell); assay type: cell-based; conditions: recombinant HEK293-derived cell line expressing aequorin; PAR1 agonist added at its EC50 5 minutes after test substance
T1 construct: the cell stably expresses the endogenous human PAR1 receptor and the endogenous purinergic receptor P2Y2; endogenous in cells; host or cells: HEK293-derived recombinant cell line constitutively expressing mitochondrial aequorin
T1 sequence (P25116 22-425): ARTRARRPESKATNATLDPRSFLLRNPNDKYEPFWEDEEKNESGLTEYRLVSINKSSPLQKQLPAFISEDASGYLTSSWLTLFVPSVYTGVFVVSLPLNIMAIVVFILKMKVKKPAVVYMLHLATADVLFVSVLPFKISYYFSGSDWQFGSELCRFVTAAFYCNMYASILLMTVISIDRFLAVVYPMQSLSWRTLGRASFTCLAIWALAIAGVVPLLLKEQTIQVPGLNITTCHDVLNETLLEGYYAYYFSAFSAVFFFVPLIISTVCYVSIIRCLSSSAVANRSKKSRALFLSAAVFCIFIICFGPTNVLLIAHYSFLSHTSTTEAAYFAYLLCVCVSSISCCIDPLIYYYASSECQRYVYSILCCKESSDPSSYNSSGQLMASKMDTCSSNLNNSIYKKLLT
From the text: 1.a) Cellular Functional In vitro Test
A recombinant cell line is used to identify […] of the human protease activated receptor 1 (PAR1) and to quantify the activity of the substances described herein. The cell is originally derived from a human embryonal kidney cell (HEK293; ATCC: American Type Culture Collection, Manassas, Va. 20108, USA). The test cell line constitutively expresses a modified form of the calcium-sensitive photoprotein aequorin which, after reconstitution with the cofactor coelenterazine, emits light when the free calcium concentration in the inner mitochondrial compartment is increased (Rizzuto R, Simpson A W, Brini M, Pozzan T.; Nature 1992, 358, 325-327). Additionally, the cell stably expresses the endogenous human PAR1 receptor and the endogenous purinergic receptor P2Y2. The resulting PAR1 test cell responds to stimulation of the endogenous PAR1 or P2Y2 receptor with an intracellular release of calcium ions, which can be quantified through resulting aequorin luminescence with a suitable luminometer (Milligan G, Marshall F, Rees S, Trends in Pharmacological Sciences 1996, 17, 235-237).
For testing the substance specificity, its effect after activation of the endogenous PAR1 receptor is compared to the effect after activation of the endogenous purinergic P2Y2 receptor which utilizes the same intracellular signal path.
Test procedure: The cells are plated out two days (48 hours) before the test in culture medium (DMEM F12, supplemented with 10% FCS, 2 mM glutamine, 20 mM HEPES, 1.4 mM pyruvate, 0.1 mg/ml gentamycin, 0.15% Na bicarbonate; BioWhittaker Cat.# BE04-687Q; B-4800 Verviers, Belgium) in 384-well microtitre plates and kept in a cell incubator (96% atmospheric humidity, 5% V/V CO2, 37° C.). On the day of the test, the culture medium is replaced by a tyrode solution (in mM: 140NaCl, 5l KCl, 1MgCl2, 2CaCl2, 20 glucose, 20 HEPES), which additionally contains the cofactor coelenterazine (25 μM) and glutathione (4 mM), and the microtitre plate is then incubated for a further 3-4 hours. The test substances are then pipetted onto the microtitre plate, and 5 minutes after the transfer of the test substances into the wells of the microtitre plate the plate is transferred into the luminometer, a PAR1 agonist concentration which corresponds to the EC50 is added and the resulting light signal is immediately measured in the luminometer. To distinguish an antagonist substance action from a toxic action, the endogenous purinergic receptor is immediately subsequently activated with agonist (ATP, final concentration 10 μM) and the resulting light signal is measured.

Structure (SMILES) | IC50 [nM]
CN(C)Cc1nnc(C2CC(c3ccc(OC(F)(F)F)cc3)CN(C(=O)N3CCOCC3)C2)o1 (racemic) [Example 470, {3-{5-[(Dimethylamino)methyl]-1,3,4-oxadiazol-2-yl}-5-[4-(trifluoromethoxy)phenyl]piperidin-1-yl}(morpholin-4-yl)methanone] | 4.16
CC(C)Cc1nnc(C2CC(c3ccc(OC(F)(F)F)cc3)CN(C(=O)N3CCOCC3)C2)o1 (racemic) [Example 474, {3-[5-(2-Methylpropyl)-1,3,4-oxadiazol-2-yl]-5-[4-(trifluoromethoxy)phenyl]piperidin-1-yl}-(morpholin-4-yl)methanone] | 23.4
CCSCc1csc(C2CC(c3ccc(CC)cc3)CN(C(=O)N3CCOCC3)C2)n1 (racemic) [Example 484, [3-(4-Ethylphenyl)-5-{4-[(ethylsulphanyl)methyl]-1,3-thiazol-2-yl}piperidin-1-yl](morpholin-4-yl)methanone] | 76.6
CC(C)(C)c1csc(C2CC(c3ccc(OC(F)(F)F)cc3)CN(C(=O)N3CCOCC3)C2)n1 (racemic) [Example 487, {3-(4-tert-Butyl-1,3-thiazol-2-yl)-5-[4-(trifluoromethoxy)phenyl]piperidin-1-yl}(morpholin-4-yl)-methanone] | 107
CCc1csc(C2CC(c3ccc(OC(F)(F)F)cc3)CN(C(=O)N3CCOCC3)C2)n1 (racemic) [Example 490, {3-(4-Ethyl-1,3-thiazol-2-yl)-5-[4-(trifluoromethoxy)phenyl]piperidin-1-yl}(morpholin-4-yl)-methanone] | 25.1
CC(C)c1nnc(C2CC(c3ccc(OC(F)(F)F)cc3)CN(C(=O)N3CCOCC3)C2)s1 (racemic) [Example 494, Morpholin-4-yl{3-[5-(propan-2-yl)-1,3,4-thiadiazol-2-yl]-5-[4-(trifluoromethoxy)phenyl]piperidin-1-yl}methanone] | 5.67
O=C(N1CCOCC1)N1CC(c2ccc(OC(F)(F)F)cc2)CC(c2nnc(-c3ccccc3)s2)C1 (racemic) [Example 495, Morpholin-4-yl{3-(5-phenyl-1,3,4-thiadiazol-2-yl)-5-[4-(trifluoromethoxy)phenyl]piperidin-1-yl}-methanone] | 3.51
O=C(N1CCOCC1)N1CC(c2ccc(OC(F)(F)F)cc2)CC(c2nc(C3CCC3)no2)C1 (racemic) [Example 513, {3-(3-Cyclobutyl-1,2,4-oxadiazol-5-yl)-5-[4-(trifluoromethoxy)phenyl]piperidin-1-yl}(morpholin-4-yl)methanone] | 5.16
CCc1noc(C2CC(c3ccc(OC(F)(F)F)cc3)CN(C(=O)N3CCC(C#N)CC3)C2)n1 (racemic) [Example 519, 1-({3-(3-Ethyl-1,2,4-oxadiazol-5-yl)-5-[4-(trifluoromethoxy)phenyl]piperidin-1-yl}carbonyl)-piperidine-4-carbonitrile] | 20.8
CC(C)c1noc(C2CC(c3ccc(OC(F)(F)F)cc3)CN(C(=O)N3CCC(C#N)CC3)C2)n1 (racemic) [Example 520, 1-({3-[3-(Propan-2-yl)-1,2,4-oxadiazol-5-yl]-5-[4-(trifluoromethoxy)phenyl]piperidin-1-yl}-carbonyl)piperidine-4-carbonitrile] | 11
CN(C)Cc1nc(C2CC(c3ccc(C(F)(F)F)cc3)CN(C(=O)N3CCOCC3)C2)no1 (single isomer, unassigned) [Example 170, {3-{5-[(Dimethylamino)methyl]-1,2,4-oxadiazol-3-yl}-5-[4-(trifluoromethyl)phenyl]piperidin-1-yl}(morpholin-4-yl)methanone hydrochloride] | 18.8
COCCc1noc(C2CC(c3ccc(OC(F)(F)F)cc3)CN(C(=O)N3CCOCC3)C2)n1 (single isomer, unassigned) [Example 178, {3-[3-(2-Methoxyethyl)-1,2,4-oxadiazol-5-yl]-5-[4-(trifluoromethoxy)phenyl]piperidin-1-yl}-(morpholin-4-yl)methanone] | 17.1
COCCc1noc(C2CC(c3cccc(OC(F)(F)F)c3)CN(C(=O)N3CCOCC3)C2)n1 (single isomer, unassigned) [Example 194, {3-[3-(2-Methoxyethyl)-1,2,4-oxadiazol-5-yl]-5-[3-(trifluoromethoxy)phenyl]piperidin-1-yl}-(morpholin-4-yl)methanone] | 66.1
Cc1noc(C2CC(c3ccc(OC(F)(F)F)cc3)CN(C(=O)N3CCOCC3)C2)n1 (single isomer, unassigned) [Example 239, {3-(3-Methyl-1,2,4-oxadiazol-5-yl)-5-[4-(trifluoromethoxy)phenyl]piperidin-1-yl}(morpholin-4-yl)methanone] | 5.74
Cc1noc(C2CC(c3ccc(C(F)(F)F)cc3)CN(C(=O)N3CCC(O)CC3)C2)n1 (single isomer, unassigned) [Example 260, (4-Hydroxypiperidin-1-yl){(3-(3-methyl-1,2,4-oxadiazol-5-yl)-5-[4-trifluoromethyl)phenyl]-piperidin-1-yl}methanone] | 11.4
COCCc1noc(C2CC(c3ccc(C(F)(F)F)cc3)CN(C(=O)N3CCC(O)CC3)C2)n1 (single isomer, unassigned) [Example 275, (4-Hydroxypiperidin-1-yl) {3-[3-(2-methoxyethyl)-1,2,4-oxadiazol-5-yl]-5-[4-(trifluoromethyl)-phenyl]piperidin-1-yl}methanone] | 10.3
COCCc1noc(C2CC(c3ccc(C(F)(F)F)cc3)CN(C(=O)N3CCC(O)CC3)C2)n1 (single isomer, unassigned) [Example 276, (4-Hydroxypiperidin-1-yl) {3-[3-(2-methoxyethyl)-1,2,4-oxadiazol-5-yl]-5-[4-(trifluoromethyl)-phenyl]piperidin-1-yl}methanone] | 25.3
COCCc1noc(C2CC(c3ccc(C(F)(F)F)cc3)CN(C(=O)N3CC(O)C3)C2)n1 (single isomer, unassigned) [Example 279] | 14.7
COCCc1noc(C2CC(c3ccc(OC(F)(F)F)c(C)c3)CN(C(=O)N3CCOCC3)C2)n1 (single isomer, unassigned) [Example 322, {3-[3-(2-Methoxyethyl)-1,2,4-oxadiazol-5-yl]-5-[3-methyl-4-(trifluoromethoxy)phenyl]piperidin-1-yl}(morpholin-4-yl)methanone] | 3.01
Cc1noc(C2CC(c3ccc(C(F)(F)F)cc3)CN(C(=O)N3CCOCC3)C2)n1 (single isomer, unassigned) [Example 335, {3-(3-Methyl-1,2,4-oxadiazol-5-yl)-5-[4-(trifluoromethyl)phenyl]piperidin-1-yl}(morpholin-4-yl)-methanone] | 25.1
COCCc1noc(C2CC(c3ccc(OC(F)(F)F)cc3)CN(C(=O)N3CCC(O)CC3)C2)n1 (single isomer, unassigned) [Example 449, (4-Hydroxypiperidin-1-yl) {3-[3-(2-methoxyethyl)-1,2,4-oxadiazol-5-yl]-5-[4-(trifluoromethoxy)-phenyl]piperidin-1-yl}methanone] | 86.3
CC(C)c1noc(C2CC(c3ccc(OC(F)(F)F)cc3)CN(C(=O)N3CCC(O)CC3)C2)n1 (single isomer, unassigned) [Example 451, (4-Hydroxypiperidin-1-yl){3-[3-(propan-2-yl)-1,2,4-oxadiazol-5-yl]-5-[4-(trifluoromethoxy)phenyl]piperidin-1-yl}methanone] | 19.6
Cc1noc(C2CC(c3ccc(OC(F)(F)F)cc3)CN(C(=O)N3CCC(O)CC3)C2)n1 (single isomer, unassigned) [Example 454, (4-Hydroxypiperidin-1-yl){3-(3-methyl-1,2,4-oxadiazol-5-yl)-5-[4-(trifluoromethoxy)phenyl]piperidin-1-yl}methanone] | 47.5
